The target in one experiment is Y641N EZH2 (Homo sapiens, UniProt Q15910, Y641N). Description: Y641N EZH2 activity inhibition assay (as EZH2 assay, reconstituted H3K27Me2 oligonucleosomes as substrate). The class given is biochemical. To be noted: Y641N EZH2 mutant enzyme. As to the method:
(§1) EZH2 Assay: Assays were carried out by mixing rPRC2 together with biotinylated oligonucleosome substrates in the presence of the radio-labeled enzyme co-factor, S-adenosyl-L-methionine (^3H SAM) (Perkin Elmer) and monitoring the enzymatically mediated transfer of tritiated methyl groups from ^3H SAM to histone lysine residues. The amount of resulting tritiated methyl histone product was measured by first capturing the biotinylated oligonucleosomes in streptavidin (SAV) coated FlashPlates (Perkin Elmer), followed by a wash step to remove un-reacted ^3H SAM, and then counting on a TopCount NXT 384 well plate scintillation counter (Perkin Elmer). The final assay conditions for EZH2 were as follows: 50 mM Tris Buffer pH 8.5, 1 mM DTT, 69 μM Brij-35 detergent, 5.0 mM MgCl2, 0.1 mg/mL BSA, 0.2 μM ^3H SAM, 0.2 μM biotinylated oligonucleosomes, 3.6 μM H3K27me3 peptide and 2 nM EZH2.
(§2) A 12.5 μL volume of the HMT enzyme, H3K27me3 peptide and oligonucleosome substrate in assay buffer was added to each well of the assay plate using a Multidrop Combi (ThermoFisher). Compounds were pre-incubated with the enzyme for 20 min, followed by initiation of the methyltransferase reaction by addition of 12.5 μL of 3H SAM in assay buffer (final volume=25 μL). The final concentrations of compounds ranged from a top default concentration of 80 μM down to 0.16 μM in ten 2-fold dilution steps. Reactions were carried out for 60 minutes and quenched with 20 μL per well of 1.96 mM SAH, 50 mM Tris PH 8.5, 200 mM EDTA. Stopped reactions were transferred to SAV coated Flashplates (Perkin Elmer), incubated for 120 min, washed with a plate washer, and then read on the TopCount NXT (1.0 min/well) to measure the amount of methyl histone product formed during the reaction.

For another experiment, the target named is EZH2 (Homo sapiens, UniProt Q15910). Nature of the experiment: EZH2 activity inhibition assay (rPRC2, 3H SAM, biotinylated oligonucleosomes, FlashPlate). In kind it is biochemical. To be noted: rPRC2, 2 nM EZH2, 0.2 μM 3H SAM, top concentration 80 μM. The procedure: as §1, with “Elmer).” for “Elmer). The final assay conditions for EZH2 were as follows: 50 mM Tris Buffer pH 8.5, 1 mM DTT, 69 μM Brij-35 detergent, 5.0 mM MgCl2, 0.1 mg/mL BSA, 0.2 μM ^3H SAM, 0.2 μM biotinylated oligonucleosomes, 3.6 μM H3K27me3 peptide and 2 nM EZH2.”
as §2, with “The final concentrations of compounds ranged from a top default concentration of 80 μM down to 0.16 μM in ten 2-fold dilution steps. Reactions were carried out for 60 minutes and quenched with 20 μL per well of 1.96 mM SAH, 50 mM Tris PH 8.5, 200 mM EDTA.” left out

The source of these data is patent US9206128B2 (Constellation Pharmaceuticals, Inc., priority 2011, dated 2015).

Y641N EZH2, sequence (Q15910 whole entry Y641N): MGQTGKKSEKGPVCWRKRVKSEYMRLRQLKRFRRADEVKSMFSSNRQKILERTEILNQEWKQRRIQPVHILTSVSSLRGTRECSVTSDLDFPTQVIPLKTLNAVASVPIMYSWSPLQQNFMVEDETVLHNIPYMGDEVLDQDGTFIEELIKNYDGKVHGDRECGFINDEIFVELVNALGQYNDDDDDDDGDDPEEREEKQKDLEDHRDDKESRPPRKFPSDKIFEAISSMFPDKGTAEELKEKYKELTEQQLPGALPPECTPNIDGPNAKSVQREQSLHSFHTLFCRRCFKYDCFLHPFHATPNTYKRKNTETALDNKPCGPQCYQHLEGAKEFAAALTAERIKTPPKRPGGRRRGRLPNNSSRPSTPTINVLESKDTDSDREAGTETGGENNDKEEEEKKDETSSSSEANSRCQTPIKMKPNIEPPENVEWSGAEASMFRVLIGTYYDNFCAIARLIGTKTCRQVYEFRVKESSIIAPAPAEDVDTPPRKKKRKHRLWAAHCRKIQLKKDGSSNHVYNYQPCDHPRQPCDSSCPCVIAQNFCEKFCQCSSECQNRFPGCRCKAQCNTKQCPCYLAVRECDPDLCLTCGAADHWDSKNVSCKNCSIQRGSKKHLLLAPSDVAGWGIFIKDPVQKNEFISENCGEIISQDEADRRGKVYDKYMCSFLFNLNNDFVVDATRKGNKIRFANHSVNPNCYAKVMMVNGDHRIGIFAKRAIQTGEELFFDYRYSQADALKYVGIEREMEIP
Y641N EZH2, sequence (O75530 whole entry partner): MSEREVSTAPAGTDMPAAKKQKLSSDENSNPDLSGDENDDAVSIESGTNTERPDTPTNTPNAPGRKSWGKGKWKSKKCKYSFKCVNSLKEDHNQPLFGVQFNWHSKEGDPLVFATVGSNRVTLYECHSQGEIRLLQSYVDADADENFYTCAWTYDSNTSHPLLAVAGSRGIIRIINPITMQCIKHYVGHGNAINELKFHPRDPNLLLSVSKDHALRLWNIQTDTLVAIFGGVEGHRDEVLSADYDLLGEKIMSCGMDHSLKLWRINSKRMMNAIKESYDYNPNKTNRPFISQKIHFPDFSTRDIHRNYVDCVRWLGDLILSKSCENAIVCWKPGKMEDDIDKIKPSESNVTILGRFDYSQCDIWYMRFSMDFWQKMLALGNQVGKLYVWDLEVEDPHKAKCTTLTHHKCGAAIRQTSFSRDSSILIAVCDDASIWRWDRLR
Y641N EZH2, sequence (Q15022 whole entry partner): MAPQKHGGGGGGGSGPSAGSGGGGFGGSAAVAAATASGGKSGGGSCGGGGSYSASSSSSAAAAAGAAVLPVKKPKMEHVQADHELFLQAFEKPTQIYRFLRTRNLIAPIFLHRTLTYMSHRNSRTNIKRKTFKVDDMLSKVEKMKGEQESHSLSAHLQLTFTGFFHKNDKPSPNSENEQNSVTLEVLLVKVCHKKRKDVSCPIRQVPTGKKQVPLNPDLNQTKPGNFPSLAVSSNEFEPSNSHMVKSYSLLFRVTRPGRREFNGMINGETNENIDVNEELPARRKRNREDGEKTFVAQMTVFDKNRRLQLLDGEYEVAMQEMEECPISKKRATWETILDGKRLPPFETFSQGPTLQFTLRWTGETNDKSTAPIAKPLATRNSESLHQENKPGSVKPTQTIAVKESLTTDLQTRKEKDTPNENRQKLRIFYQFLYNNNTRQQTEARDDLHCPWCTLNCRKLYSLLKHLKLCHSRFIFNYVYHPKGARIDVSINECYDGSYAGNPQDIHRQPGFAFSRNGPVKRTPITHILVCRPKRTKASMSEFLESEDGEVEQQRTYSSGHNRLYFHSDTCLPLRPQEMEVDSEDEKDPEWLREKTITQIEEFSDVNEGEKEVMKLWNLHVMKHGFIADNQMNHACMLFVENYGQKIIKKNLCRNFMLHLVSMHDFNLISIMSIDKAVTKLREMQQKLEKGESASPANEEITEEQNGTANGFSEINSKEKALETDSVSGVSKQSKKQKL
EZH2, sequence (Q15910 whole entry): as the sequence (Q15910 whole entry Y641N) above, with N641Y counted along it
EZH2, sequence (O75530 whole entry partner): as the sequence (O75530 whole entry partner) above
EZH2, sequence (Q15022 whole entry partner): as the sequence (Q15022 whole entry partner) above

Take `Cc1cc(C)c(CNC(=O)c2ccc(C(C)Oc3ccccc3)c(F)c2)c(=O)[nH]1` (single isomer, unassigned) [Compound I-160, (R)— or (S)-3-fluoro-N-((2-hydroxy-4,6-dimethylpyridin-3-yl)methyl)-4-(1-phenoxyethyl)benzamide]: the IC50 on Y641N EZH2 and on EZH2 was > 80 µM throughout.
On to `Cc1cc(C)c(CNC(=O)c2ccc(C(C)Oc3ccccc3)c(F)c2)c(=O)[nH]1` (single isomer, unassigned) [Compound I-161, (S)— or (R)-3-fluoro-N-((2-hydroxy-4,6-dimethylpyridin-3-yl)methyl)-4-(1-phenoxyethyl)benzamide], for which the IC50 at Y641N EZH2 and against EZH2 was < 1 µM each time.
With `Cc1cc(C)c(CNC(=O)c2ccc(C(C)Oc3ccccc3)cc2)c(=O)[nH]1` (stereo in doubt) [Compound I-30, (S)—N-((2-hydroxy-4,6-dimethylpyridin-3-yl)methyl)-4-(1-phenoxyethyl)benzamide], the figures for the IC50 at Y641N EZH2 and against EZH2 were > 80 µM and 10 to 50 µM, respectively.
As for `Cc1cc(C)c(CNC(=O)c2ccc(Oc3ccccc3C#N)cc2)c(=O)[nH]1` [Compound I-2, 4-(2-cyanophenoxy)-N-((2-hydroxy-4,6-dimethylpyridin-3-yl)methyl)benzamide], the values for the IC50 on Y641N EZH2 and on EZH2 were 10 to 50 µM and 1 to 10 µM, respectively.
On to `Cc1cc(C)c(CNC(=O)c2ccc(COc3cccc(-c4ccc(N)nc4)c3)cc2)c(=O)[nH]1` [Compound I-3, 4-((3-(6-aminopyridin-3-yl)phenoxy)methyl)-N-((2-hydroxy-4,6-dimethylpyridin-3-yl)methyl)benzamide], for which the figures for the IC50 at Y641N EZH2 and on EZH2 were 1 to 10 µM and < 1 µM, respectively.
On EZH2, `CCc1cccc(Oc2ccc(C(=O)NCc3c(C)cc(C)[nH]c3=O)cc2C)c1C#N` [Compound I-4, 4-(2-cyano-3-ethylphenoxy)-N-((2-hydroxy-4,6-dimethylpyridin-3-yl)methyl)-3-methylbenzamide] came in with an IC50 of 1 to 10 µM.
Still for that read-out and setting: the same measure for `Cc1cc(C)c(CNC(=O)c2ccc(Oc3cccc(-c4cn[nH]c4)c3C#N)c(Cl)c2)c(=O)[nH]1` [Compound I-5, 3-chloro-4-(2-cyano-3-(1H-pyrazol-4-yl)phenoxy)-N-((2-hydroxy-4,6-dimethylpyridin-3-yl)methyl)benzamide]: 1 to 10 µM.
On the same count and under the same terms, under `Cc1cc(C)c(CNC(=O)c2ccc(Oc3cccc(-c4ccncc4)c3C#N)c(Cl)c2)c(=O)[nH]1` [Compound I-6, 3-chloro-4-(2-cyano-3-(pyridin-4-yl)phenoxy)-N-((2-hydroxy-4,6-dimethylpyridin-3-yl)methyl)benzamide] stands 1 to 10 µM; under `Cc1cc(C)c(CNC(=O)c2ccc(Oc3ccccc3-c3ccncc3)c(Cl)c2)c(=O)[nH]1` [Compound I-7, 3-chloro-N-((2-hydroxy-4,6-dimethylpyridin-3-yl)methyl)-4-(2-(pyridin-4-yl)phenoxy)benzamide], 1 to 10 µM.
For the molecule `Cc1cc(C)c(CNC(=O)c2ccc(Oc3ccccc3C#N)c(Cl)c2)c(=O)[nH]1` [Compound I-10, 3-chloro-4-(2-cyanophenoxy)-N-((2-hydroxy-4,6-dimethylpyridin-3-yl)methyl)benzamide], the IC50 on Y641N EZH2 and against EZH2 was 1 to 10 µM throughout.
Consider `Cc1cc(C)c(CNC(=O)c2ccc(COc3ccccc3)cc2)c(=O)[nH]1` [Compound I-11, N-((2-hydroxy-4,6-dimethylpyridin-3-yl)methyl)-4-(phenoxymethyl)benzamide], for which the IC50 against Y641N EZH2 and against EZH2 was 1 to 10 µM throughout.
In the case of `Cc1cc(C)c(CNC(=O)c2ccc(OCc3ccccc3)cc2)c(=O)[nH]1` [Compound I-12, 4-(benzyloxy)-N-((2-hydroxy-4,6-dimethylpyridin-3-yl)methyl)benzamide], the figures for the IC50 on Y641N EZH2 and on EZH2 were 10 to 50 µM and 1 to 10 µM, respectively.
For `Cc1cc(C)c(CNC(=O)c2ccc(N(C)c3ccccc3)cc2)c(=O)[nH]1` [Compound I-13], in that order: 1 to 10 µM and < 1 µM.
Taken in the same sequence, the figures for `Cc1cc(C)c(CNC(=O)c2ccc(Oc3ncccn3)cc2)c(=O)[nH]1` [Compound I-14] were > 80 µM and > 50 µM.
For `COc1ccnc(Oc2ccc(C(=O)NCc3c(C)cc(C)[nH]c3=O)cc2)n1` [Compound I-15], in that order: > 80 µM and > 50 µM.
Turning to `Cc1cc(C)c(CNC(=O)c2ccc(Oc3ccccc3)nc2)c(=O)[nH]1` [Compound I-16], the half-maximal inhibitory concentration (IC50) was in the range of 10 to 50 µM against Y641N EZH2 and 1 to 10 µM on EZH2.
`Cc1cc(C)c(CN(C)C(=O)c2ccc(Oc3cccc(-c4ccncn4)c3C#N)c(Cl)c2)c(O)n1` [Compound I-17, 3-chloro-4-(2-cyano-3-(pyrimidin-4-yl)phenoxy)-N-((2-hydroxy-4,6-dimethylpyridin-3-yl)methyl)-N-methylbenzamide]: the IC50 on Y641N EZH2 was > 50 µM; at EZH2 it was 1 to 10 µM.
Taken in the same sequence, the figures for `Cc1cc(C)c(CNC(=O)c2ccc(Nc3ccccc3)nc2)c(=O)[nH]1` [Compound I-18] were > 80 µM and 10 to 50 µM.
For `Cc1cc(C)c(CNC(=O)c2ccc(Nc3ccccc3)cc2)c(=O)[nH]1` [Compound I-19], in that order: 10 to 50 µM and 1 to 10 µM.
As to `Cc1cc(C)c(CN(C)C(=O)c2ccc(Oc3ccccc3)cc2)c(O)n1` [Compound I-20, N-((2-hydroxy-4,6-dimethylpyridin-3-yl)methyl)-N-methyl-4-phenoxybenzamide], the values for the IC50 against Y641N EZH2 and against EZH2 were > 50 µM and 1 to 10 µM, respectively.
Taken in the same sequence, the figures for `Cc1cc(C)c(CNC(=O)c2ccc(Oc3ccccc3)cn2)c(=O)[nH]1` [Compound I-21, N-((2-hydroxy-4,6-dimethylpyridin-3-yl)methyl)-5-phenoxypicolinamide] were 10 to 50 µM and 1 to 10 µM.
Taken in the same sequence, the figures for `Cc1cc(C)c(CNC(=O)c2ccc(Oc3ccccc3)cc2Cl)c(=O)[nH]1` [Compound I-22] were 1 to 10 µM and < 1 µM.
As for `Cc1cc(C)c(CNC(=O)c2ccc(C(C)Oc3ccccc3)cc2)c(=O)[nH]1` (centres unmarked) [Compound I-23, N-((2-hydroxy-4,6-dimethylpyridin-3-yl)methyl)-4-(1-phenoxyethyl)benzamide], the IC50 on Y641N EZH2 and at EZH2 was < 1 µM each time.
Take `Cc1cc(C)c(CNC(=O)c2ccc(C(O)c3ccccc3)cc2)c(=O)[nH]1` (centres unmarked) [Compound I-24]: the IC50 at Y641N EZH2 was > 50 µM; against EZH2, 10 to 50 µM.
Take `Cc1cc(C)c(CNC(=O)c2ccc(C(C)(O)c3ccccc3)cc2)c(=O)[nH]1` (centres unmarked) [Compound I-25]: the IC50 against Y641N EZH2 lay in the range of 10 to 50 µM; at EZH2 it was 1 to 10 µM.
For `Cc1cc(C)c(CNC(=O)c2ccc(S(=O)(=O)c3ccccc3)cc2)c(=O)[nH]1` [Compound I-26, N-((2-hydroxy-4,6-dimethylpyridin-3-yl)methyl)-4-(phenylsulfonyl)benzamide], in that order: > 80 µM and 10 to 50 µM.
For `Cc1cc(C)c(CNC(=O)c2ccc(COc3ccccc3)cc2C)c(=O)[nH]1` [Compound I-27, N-((2-hydroxy-4,6-dimethylpyridin-3-yl)methyl)-2-methyl-4-(phenoxymethyl)benzamide], in that order: 1 to 10 µM and < 1 µM.
For `Cc1cc(C)c(CNC(=O)c2ccc(Oc3ccccc3)cc2C)c(=O)[nH]1` [Compound I-28, N-((2-hydroxy-4,6-dimethylpyridin-3-yl)methyl)-2-methyl-4-phenoxybenzamide], in that order: 10 to 50 µM and 1 to 10 µM.
Consider `Cc1cc(C)c(CNC(=O)c2ccc([S+]([O-])c3ccccc3)cc2)c(=O)[nH]1` (centres unmarked) [Compound I-29, N-((2-hydroxy-4,6-dimethylpyridin-3-yl)methyl)-4-(phenylsulfinyl)benzamide], for which the IC50 on Y641N EZH2 is > 80 µM; against EZH2, 10 to 50 µM.
In the case of `Cc1cc(C)c(CNC(=O)c2ccc([C@H](C)Oc3ccccc3)cc2)c(O)n1` [Compound I-31, (S)—N-((2-hydroxy-4,6-dimethylpyridin-3-yl)methyl)-4-(1-phenoxyethyl)benzamide], the IC50 at Y641N EZH2 and against EZH2 was < 1 µM in each case.

As a reminder, the IC50 is the point on the concentration scale where inhibition reaches its midpoint. Low values mean higher potency, high ones lower potency.
